Patent EP4635945A1, “CRYSTAL FORM OF PROXIMOD, PREPARATION METHOD THEREFOR, AND USE THEREOF” (Jiankuan (Suzhou) Biotechnology Co., Ltd, priority 2022, dated 2024)

Key:
[1] = Dynamic solubility in biorelevant media and buffers at 37 °C (HPLC, XRPD of solids); type: physicochemical; details: for solubility at 2 h / solubility at 1 h / solubility at 4 h / solubility at 24 h: thermodynamic from solid
Method: After 1 hour/2 hours/4 hours/24 hours, the saturated solutions were obtained by filtration. The actual concentrations of the samples in the saturated solutions were determined by high-performance liquid chromatography (HPLC) (the filtered solutions were diluted as needed), and the crystal forms of the solids before and after the experiment were characterized by XRPD to check whether phase changes occurred.

[2] = Intrinsic dissolution of tableted crystal forms; type: physicochemical; details: hydrochloride
[3] = FaSSIF (pH of 8.0), 1 hour, hydrochloride
[4] = FaSSIF (pH of 8.0), 2 hours, hydrochloride
[5] = FaSSIF (pH of 8.0), 4 hours, hydrochloride
[6] = FaSSIF (pH of 8.0), 24 hours, hydrochloride
[7] = FeSSIF (pH of 5.0), 4 hours, hydrochloride
[8] = pH = 1.0 hydrochloric acid aqueous solution, 2 hours
[9] = pH = 4.0 acetic acid-sodium acetate buffer, 1 hour, hydrochloride
[10] = pH = 4.0 acetic acid-sodium acetate buffer, 2 hours, hydrochloride
[11] = pH = 4.0 acetic acid-sodium acetate buffer, 4 hours, hydrochloride
[12] = pH = 4.0 acetic acid-sodium acetate buffer, 24 hours, hydrochloride
[13] = pH = 6.8 phosphate buffer, 1 hour
[14] = pH = 6.8 phosphate buffer, 2 hours
[15] = pH = 6.8 phosphate buffer, 4 hours
[16] = pH = 6.8 phosphate buffer, 24 hours
[17] = Medium pH = 4.0, flow rate 4 mL/minute, 5 min
[18] = Medium pH = 4.0, flow rate 4 mL/minute, 10 min
[19] = Medium pH = 4.0, flow rate 4 mL/minute, 30 min
[20] = Medium pH = 4.0, flow rate 4 mL/minute, 45 min
[21] = Medium pH = 4.0, flow rate 4 mL/minute, 60 min
[22] = Medium pH = 4.0, flow rate 4 mL/minute, 90 min

## CCCc1nc(-c2ccc(-c3ccc(CCC(N)(CO)CO)cc3)cc2)co1.Cl [Crystal form B, 2-amino-2-{2-(4'-(2-propyloxazol-4-yl)-[1,1'-biphenyl]-4-yl)ethyl}-1,3-propanediol hydrochloride]
[1]; [3]
  Crystal form of the solid: Free alkali
  Solubility: 70 µg/mL
[1]; [4]
  Crystal form of the solid: Free alkali
  Solubility: 200 µg/mL
[1]; FaSSIF (pH of 8.0), 4 hours
  Crystal form of the solid: Free alkali
[1]; [5]
  Solubility: 410 µg/mL
[1]; FaSSIF (pH of 8.0), 24 hours
  Crystal form of the solid: Free alkali
[1]; [6]
  Solubility: 100 µg/mL
[1]; FeSSIF (pH of 5.0), 1 hour, hydrochloride
  Solubility: 2580 µg/mL
[1]; FeSSIF (pH of 5.0), 2 hours, hydrochloride
  Solubility: 2300 µg/mL
[1]; [7]
  Solubility: 2560 µg/mL
[1]; FeSSIF (pH of 5.0), 24 hours
  Crystal form of the solid: no crystal form change
[1]; FeSSIF (pH of 5.0), 24 hours, hydrochloride
  Solubility: 3460 µg/mL
[1]; SGF (pH of 1.0), 1 hour, hydrochloride
  Solubility: 310 µg/mL
[1]; SGF (pH of 1.0), 2 hours, hydrochloride
  Solubility: 270 µg/mL
[1]; SGF (pH of 1.0), 4 hours, hydrochloride
  Solubility: 290 µg/mL
[1]; SGF (pH of 1.0), 24 hours, hydrochloride
  Solubility: 310 µg/mL
[1]; Water, 1 hour, hydrochloride
  Crystal form of the solid: B + F
  Solubility: 1910 µg/mL
[1]; Water, 2 hours, hydrochloride
  Crystal form of the solid: B + F
  Solubility: 2430 µg/mL
[1]; Water, 4 hours, hydrochloride
  Crystal form of the solid: B + F
  Solubility: 2240 µg/mL
[1]; Water, 24 hours, hydrochloride
  Crystal form of the solid: B + F
  Solubility: 2610 µg/mL
[1]; pH = 1.0 hydrochloric acid aqueous solution, 1 hour, hydrochloride
  Solubility: 270 µg/mL
[1]; [8]
  Solubility: 280 µg/mL
[1]; pH = 1.0 hydrochloric acid aqueous solution, 4 hours, hydrochloride
  Solubility: 280 µg/mL
[1]; pH = 1.0 hydrochloric acid aqueous solution, 24 hours, hydrochloride
  Solubility: 300 µg/mL
[1]; [9]
  Crystal form of the solid: B + F
  Solubility: 1910 µg/mL
[1]; [10]
  Crystal form of the solid: B + F
  Solubility: 2350 µg/mL
[1]; [11]
  Crystal form of the solid: B + F
  Solubility: 1990 µg/mL
[1]; [12]
  Crystal form of the solid: B + F
  Solubility: 2310 µg/mL
[1]; [13]
  Crystal form of the solid: Free alkali
[1]; pH = 6.8 phosphate buffer, 1 hour, hydrochloride
  Solubility: Not detected
[1]; [14]
  Crystal form of the solid: Free alkali
[1]; [15]
  Crystal form of the solid: Free alkali
  Solubility: Not detected
[1]; [16]
  Crystal form of the solid: Free alkali
  Solubility: Not detected
[1]; phosphate buffer, pH 6.8, aqueous buffer, pH = 6.8 phosphate buffer, 2 hours
  solubility at 2 h: 0.28 µg/mL
[2]; Medium Water, 5 min
  Dissolution amount: Not detected
[2]; Medium Water, 10 min
  Dissolution amount: 0.0002 mg/mL
[2]; Medium Water, 30 min
  Dissolution amount: 0.0003 mg/mL
[2]; Medium Water, 45 min
  Dissolution amount: 0.0009 mg/mL
[2]; Medium Water, 60 min
  Dissolution amount: 0.0003 mg/mL
[2]; Medium Water, 90 min
  Dissolution amount: 0.0004 mg/mL
[2]; [17]
  Dissolution amount: 0.0307 mg/mL
[2]; [18]
  Dissolution amount: 0.0404 mg/mL
[2]; [19]
  Dissolution amount: 0.0461 mg/mL
[2]; [20]
  Dissolution amount: 0.0488 mg/mL
[2]; [21]
  Dissolution amount: 0.0469 mg/mL
[2]; [22]
  Dissolution amount: 0.0487 mg/mL

## CCCc1nc(-c2ccc(-c3ccc(CCC(N)(CO)CO)cc3)cc2)co1.Cl [Crystal form A, 2-amino-2-{2-(4'-(2-propyloxazol-4-yl)-[1,1'-biphenyl]-4-yl)ethyl}-1,3-propanediol hydrochloride]
[1]; [3]
  Crystal form of the solid: A + Free alkali
  Solubility: 22 µg/mL
[1]; [4]
  Crystal form of the solid: A + Free alkali
  Solubility: 24 µg/mL
[1]; FaSSIF (pH of 8.0), 4 hours
  Crystal form of the solid: Free alkali
[1]; [5]
  Solubility: 18 µg/mL
[1]; FaSSIF (pH of 8.0), 24 hours
  Crystal form of the solid: Free alkali
[1]; [6]
  Solubility: 16 µg/mL
[1]; [7]
  Solubility: 340 µg/mL
[1]; FeSSIF (pH of 5.0), 24 hours
  Crystal form of the solid: no crystal form change
[1]; SGF (pH of 1.0), 1 hour
  Crystal form of the solid: A + F
[1]; SGF (pH of 1.0), 2 hours
  Crystal form of the solid: A + F
[1]; SGF (pH of 1.0), 4 hours
  Crystal form of the solid: A + F
[1]; SGF (pH of 1.0), 24 hours
  Crystal form of the solid: A + F
[1]; Water, 1 hour, hydrochloride
  Crystal form of the solid: A + F
[1]; Water, 2 hours, hydrochloride
  Crystal form of the solid: A + F
[1]; Water, 4 hours, hydrochloride
  Crystal form of the solid: A + F
  Solubility: 990 µg/mL
[1]; Water, 24 hours, hydrochloride
  Crystal form of the solid: A + F
[1]; acetic acid-sodium acetate buffer, pH 4, aqueous buffer, pH = 4.0 acetic acid-sodium acetate buffer, 1 hour
  solubility at 1 h: 1690 µg/mL
[1]; acetic acid-sodium acetate buffer, pH 4, aqueous buffer, pH = 4.0 acetic acid-sodium acetate buffer, 4 hours
  solubility at 4 h: 1360 µg/mL
[1]; acetic acid-sodium acetate buffer, pH 4, aqueous buffer, pH = 4.0 acetic acid-sodium acetate buffer, 24 hours
  solubility at 24 h: 4110 µg/mL
[1]; fed state simulated intestinal fluid (FeSSIF), pH 5, fessif, FeSSIF (pH of 5.0), 1 hour
  solubility at 1 h: 1930 µg/mL
[1]; fed state simulated intestinal fluid (FeSSIF), pH 5, fessif, FeSSIF (pH of 5.0), 2 hours
  solubility at 2 h: 2110 µg/mL
[1]; fed state simulated intestinal fluid (FeSSIF), pH 5, fessif, FeSSIF (pH of 5.0), 24 hours
  solubility at 24 h: 3720 µg/mL
[1]; hydrochloric acid aqueous solution, pH 1, simulated gastric fluid, pH = 1.0 hydrochloric acid aqueous solution, 1 hour
  solubility at 1 h: 280 µg/mL
[1]; hydrochloric acid aqueous solution, pH 1, simulated gastric fluid, pH = 1.0 hydrochloric acid aqueous solution, 2 hours
  solubility at 2 h: 280 µg/mL
[1]; hydrochloric acid aqueous solution, pH 1, simulated gastric fluid, pH = 1.0 hydrochloric acid aqueous solution, 4 hours
  solubility at 4 h: 330 µg/mL
[1]; hydrochloric acid aqueous solution, pH 1, simulated gastric fluid, pH = 1.0 hydrochloric acid aqueous solution, 24 hours
  solubility at 24 h: 400 µg/mL
[1]; pH = 1.0 hydrochloric acid aqueous solution, 1 hour
  Crystal form of the solid: A + F
[1]; [8]
  Crystal form of the solid: A + F
[1]; pH = 1.0 hydrochloric acid aqueous solution, 4 hours
  Crystal form of the solid: A + F
[1]; pH = 1.0 hydrochloric acid aqueous solution, 24 hours
  Crystal form of the solid: A + F
[1]; [9]
  Crystal form of the solid: A + F
[1]; [10]
  Crystal form of the solid: A + F
  Solubility: 1130 µg/mL
[1]; [11]
  Crystal form of the solid: A + F
[1]; [12]
  Crystal form of the solid: A + F
[1]; [13]
  Crystal form of the solid: Free alkali
[1]; [14]
  Crystal form of the solid: Free alkali
[1]; pH = 6.8 phosphate buffer, 2 hours, hydrochloride
  Solubility: Not detected
[1]; [15]
  Crystal form of the solid: Free alkali
  Solubility: Not detected
[1]; [16]
  Crystal form of the solid: Free alkali
  Solubility: Not detected
[1]; phosphate buffer, pH 6.8, aqueous buffer, pH = 6.8 phosphate buffer, 1 hour
  solubility at 1 h: 0.16 µg/mL
[1]; simulated gastric fluid (SGF), pH 1, simulated gastric fluid, SGF (pH of 1.0), 1 hour
  solubility at 1 h: 260 µg/mL
[1]; simulated gastric fluid (SGF), pH 1, simulated gastric fluid, SGF (pH of 1.0), 2 hours
  solubility at 2 h: 250 µg/mL
[1]; simulated gastric fluid (SGF), pH 1, simulated gastric fluid, SGF (pH of 1.0), 4 hours
  solubility at 4 h: 280 µg/mL
[1]; simulated gastric fluid (SGF), pH 1, simulated gastric fluid, SGF (pH of 1.0), 24 hours
  solubility at 24 h: 460 µg/mL
[1]; water, 1 hour
  solubility at 1 h: 2020 µg/mL
[1]; water, 2 hours
  solubility at 2 h: 2570 µg/mL
[1]; water, 24 hours
  solubility at 24 h: 3290 µg/mL
[2]; Medium Water, 5 min
  Dissolution amount: 0.0005 mg/mL
[2]; Medium Water, 10 min
  Dissolution amount: 0.0010 mg/mL
[2]; Medium Water, 30 min
  Dissolution amount: 0.0011 mg/mL
[2]; Medium Water, 45 min
  Dissolution amount: 0.0003 mg/mL
[2]; Medium Water, 60 min
  Dissolution amount: 0.0010 mg/mL
[2]; Medium Water, 90 min
  Dissolution amount: 0.0012 mg/mL
[2]; [17]
  Dissolution amount: 0.0346 mg/mL
[2]; [18]
  Dissolution amount: 0.0462 mg/mL
[2]; [19]
  Dissolution amount: 0.0481 mg/mL
[2]; [20]
  Dissolution amount: 0.0477 mg/mL
[2]; [21]
  Dissolution amount: 0.0487 mg/mL
[2]; [22]
  Dissolution amount: 0.0479 mg/mL
